In patent US10201531B2, “Indazolyl-oxo-isothiazole compounds” (MOCHIDA PHARMACEUTICAL CO., LTD., priority 2015, dated 2019):

Tested on: Nrf2
Assay: Evaluation of Nrf2 activation ability (Nrf2d-LacZ / Keap1 HEK293 reporter, Beta-Glo luminescence)
Assay type: cell-based, human
Description: HEK293 cells constantly expressing Nrf2d-LacZ (human Nrf2 degron region fused to LacZ; Hirotsu et al, Genes to Cell, Vol. 16, pp. 406-415 (2011)) and human Keap1 were seeded 7,000 cells/27 μl/well on 384-well plates (Corning 384 Well Flat Clear Bottom White Polystyrene TC-Treated Microplates, Cat. #3707), and cultured overnight at 5% CO2, 37° C. in DMEM medium containing 10% FBS, 100 U/mL penicillin and 100 μg/mL streptomycin. 3 μL/well of a 0.1% DMSO solution of the compound of the invention was added to the cells, which were then cultured for 3 hours at 5% CO2, 37° C. Beta-Glo® reagent (Promega, Beta-Glo Assay System, Cat. #E4740) was added 15 μL/well and incubated for 1 hour at room temperature, and luminescence intensity was measured with a luminometer. Using CDDO-Im as a standard, Nrf2 activation ability was calculated given 100% as the luminescence under stimulus with 100 nM CDDO-Im.

[1] = Pharmacological Test Example 1, rated A/B/C
[2] = rated A/B/C, Pharmacological Test Example 1

Row | Compound | EC50 [1] | EC50 [2]
1 | [O-][s+]1nc(O)cc1-n1cc(-c2cccc(-c3ccccc3)c2)cn1 (stereo not drawn) [Example 326] | < 1000 nM | 
2 | CN1CCCCOc2cc(-c3ccc4c(cnn4-c4cc(O)n[s+]4[O-])c3)cnc21 (stereo not drawn) [Example 205] |  | < 1000 nM
3 | [O-][s+]1nc(O)cc1-n1cc(C2=Cc3ccccc3CC2)cn1 (stereo not drawn) [Example 349] | < 1000 nM | 
4 | CN1CCOc2cc(-c3ccc4c(c3)c(C#N)nn4-c3cc(O)n[s+]3[O-])cnc21 (stereo not drawn) [Example 221] |  | 1000 to 5000 nM
5 | COc1cc(C2CC2)c2cnn(-c3cc(O)n[s+]3[O-])c2c1 (stereo not drawn) [Example 183] |  | 1000 to 5000 nM
6 | Cc1cncc(-c2ccc3c(cnn3-c3cc(O)n[s+]3[O-])c2)c1 (stereo not drawn) [Example 56] |  | < 1000 nM
7 | CN1CCN(c2cc(-c3ccc4c(cnn4-c4cc(O)n[s+]4[O-])c3)ccn2)CC1 (stereo not drawn) [Example 53] |  | < 1000 nM
8 | CN1CCOc2cc(-c3ccc(CCc4cnn(-c5cc(O)n[s+]5[O-])c4)cn3)cnc21 (stereo not drawn) [Example 461] | 1000 to 5000 nM | 
9 | CN(c1ccc(-c2cnn(-c3cc(O)n[s+]3[O-])c2)cn1)C1CCOCC1 (stereo not drawn) [Example 459] | 1000 to 5000 nM | 
10 | CCN1CCOc2cc(-c3ccc4c(cnn4-c4cc(O)n[s+]4[O-])c3)cnc21 (stereo not drawn) [Example 143] |  | < 1000 nM
11 | COc1cc(-c2cnc3c(c2)OCCN3C)c2cnn(-c3cc(O)n[s+]3[O-])c2c1 (stereo not drawn) [Example 174] |  | 1000 to 5000 nM
12 | CN1CCOc2cc(-c3ccc4c(cnn4-c4cc(O)n[s+]4[O-])c3)cnc21 (stereo not drawn) [Example 5, 5-[5-(4-methyl-2,3-dihydropyrido[3,2-b][1, 4]oxazin-7-yl)indazol-1-yl]-1-oxo-1,2-thiazol-3-ol] |  | < 1000 nM
13 | COc1ccncc1-c1ccc2c(cnn2-c2cc(O)n[s+]2[O-])c1 (stereo not drawn) [Example 47] |  | 1000 to 5000 nM
14 | COc1cc(-c2ccc(N3CCCC3)nc2)c2cnn(-c3cc(O)n[s+]3[O-])c2c1 (stereo not drawn) [Example 175] |  | < 1000 nM
15 | [O-][s+]1nc(O)cc1-n1cc(C#Cc2ccc(Cl)nc2)cn1 (stereo not drawn) [Example 436] | < 1000 nM | 
16 | [O-][s+]1nc(O)cc1-n1ncc2nc(-c3ccc(N4CCCCC4)nc3)ccc21 (stereo not drawn) [Example 241] |  | 1000 to 5000 nM
17 | [O-][s+]1nc(O)cc1-n1ncc2c1CCN(Cc1ccccc1)C2 (stereo not drawn) [Example 252] |  | 1000 to 5000 nM
18 | [O-][s+]1nc(O)cc1-n1ncc2cccc(Cl)c21 (stereo not drawn) [Example 37] |  | 1000 to 5000 nM

Row | Compound | EC50 [1] | EC50 [2]
19 | CN1c2ncc(-c3ccc4c(cnn4-c4cc(O)n[s+]4[O-])c3)cc2OCC1(C)C (stereo not drawn) [Example 213] |  | < 1000 nM
20 | Cc1nn(-c2cc(O)n[s+]2[O-])c(C)c1C1=CCC(C)(C)CC1 (stereo not drawn) [Example 316] | 1000 to 5000 nM | 
21 | COCCN1CCOc2cc(-c3ccc4c(cnn4-c4cc(O)n[s+]4[O-])c3)cnc21 (stereo not drawn) [Example 172] |  | < 1000 nM
22 | COc1cc(-c2cc(OC)c3cnn(-c4cc(O)n[s+]4[O-])c3c2)ccn1 (stereo not drawn) [Example 201] |  | < 1000 nM
23 | N#Cc1ccc(Oc2ccc(-c3cnn(-c4cc(O)n[s+]4[O-])c3)cc2)cc1 (stereo not drawn) [Example 362] | < 1000 nM | 
24 | CC(C)(C)OC(=O)N1CCC(c2ccc3c(cnn3-c3cc(O)n[s+]3[O-])c2)CC1 (stereo not drawn) [Example 62] |  | < 1000 nM
25 | [O-][s+]1nc(O)cc1-n1ncc2ccccc21 (stereo not drawn) [Example 17] |  | 5000 to 10000 nM
26 | [O-][s+]1nc(O)cc1-n1ncc2ccc(C3=CCOCC3)cc21 (stereo not drawn) [Example 103] |  | 1000 to 5000 nM
27 | Cc1cccc(-c2ccc3c(cnn3-c3cc(O)n[s+]3[O-])c2)n1 (stereo not drawn) [Example 117] |  | < 1000 nM
28 | [O-][s+]1nc(O)cc1-n1ncc2ccccc21 (stereo not drawn) [Example 16] |  | 1000 to 5000 nM
29 | O=c1ccc(-c2ccc3c(cnn3-c3cc(O)n[s+]3[O-])c2)c[nH]1 (stereo not drawn) [Example 125] |  | 1000 to 5000 nM
30 | COc1nc(-c2ccc(C3CC3)nc2)ccc1-c1cnn(-c2cc(O)n[s+]2[O-])c1 (stereo not drawn) [Example 437] | 1000 to 5000 nM | 
31 | CC(C)(C)OC(=O)N1CCc2nn(-c3cc(O)n[s+]3[O-])cc2C1 (stereo not drawn) [Example 248] |  | 1000 to 5000 nM
32 | [O-][s+]1nc(O)cc1-n1cc(-c2ccc(Cl)nc2)cn1 (stereo not drawn) [Example 439] | < 1000 nM | 
33 | [O-][s+]1nc(O)cc1-n1cc(CCc2ccccc2)cn1 (stereo not drawn) [Example 307] |  | < 1000 nM
34 | CN1CCOc2ncc(-c3ccc4c(cnn4-c4cc(O)n[s+]4[O-])c3)cc21 (stereo not drawn) [Example 165] |  | 1000 to 5000 nM
35 | [O-][s+]1nc(O)cc1-n1cc(-c2ccc3cccnc3c2)cn1 (stereo not drawn) [Example 383] | < 1000 nM | 

Further lines, results first:

Row | EC50 [1] | EC50 [2] | Compound
36 | < 1000 nM |  | [O-][s+]1nc(O)cc1-n1cc(C2Cc3ccccc3C2)cn1 (stereo not drawn) [Example 397]
37 | 1000 to 5000 nM |  | Cc1cnc(-c2cnn(-c3cc(O)n[s+]3[O-])c2)cn1 (stereo not drawn) [Example 413]
38 | 1000 to 5000 nM |  | Cc1cc(OCCCS(C)(=O)=O)cc(C)c1-c1cccc(COc2ccc(-c3cnn(-c4cc(O)n[s+]4[O-])c3)cc2)c1 (stereo not drawn) [Example 339]
39 |  | 5000 to 10000 nM | Cc1nn(-c2cc(O)n[s+]2[O-])c(C)c1C1=CCC(F)(F)CC1 (stereo not drawn) [Example 312]
40 |  | < 1000 nM | [O-][s+]1nc(O)cc1-n1ncc2cc(-c3ccc(F)cc3)ccc21 (stereo not drawn) [Example 85]
41 | < 1000 nM |  | COc1ncccc1-c1cnn(-c2cc(O)n[s+]2[O-])c1 (stereo not drawn) [Example 393]
42 |  | 1000 to 5000 nM | [O-][s+]1nc(O)cc1-n1ncc2c1CN(Cc1cccc(Oc3ccccc3)c1)C2 (stereo not drawn) [Example 264]
43 |  | < 1000 nM | CN1CCN(c2cc(-c3ccc4c(cnn4-c4cc(O)n[s+]4[O-])c3)ccn2)CC1 (stereo not drawn) [Example 52]
44 |  | 5000 to 10000 nM | Cc1ccc2c(cnn2-c2cc(O)n[s+]2[O-])c1 (stereo not drawn) [Example 25]
45 |  | 1000 to 5000 nM | [O-][s+]1nc(O)cc1-n1ncc2nc(-c3ccc(N4CCCC4)nc3)ccc21 (stereo not drawn) [Example 240]
46 |  | 5000 to 10000 nM | [O-][s+]1nc(O)cc1-n1ncc2c(-c3cncnc3)cccc21 (stereo not drawn) [Example 81]
47 | < 1000 nM |  | [O-][s+]1nc(O)cc1-n1cc(-c2cccc3cccnc23)cn1 (stereo not drawn) [Example 344]
48 |  | 5000 to 10000 nM | CN1C(=O)CCc2cc(-c3ccc4c(cnn4-c4cc(O)n[s+]4[O-])c3)cnc21 (stereo not drawn) [Example 164]
49 |  | < 1000 nM | CC1COc2cc(-c3ccc4c(cnn4-c4cc(O)n[s+]4[O-])c3)cnc2N1 (stereo not drawn) [Example 10]
50 |  | 1000 to 5000 nM | [O-][s+]1nc(O)cc1-n1ncc2ccc(Br)cc21 (stereo not drawn) [Example 7]
51 |  | < 1000 nM | [O-][s+]1nc(O)cc1-n1ncc2cc(-c3ccc(N4CCC5(COC5)C4)nc3)ccc21 (stereo not drawn) [Example 161]
52 |  | 5000 to 10000 nM | Cn1cc(-c2ccc3c(cnn3-c3cc(O)n[s+]3[O-])c2)ccc1=O (stereo not drawn) [Example 171]
53 | 1000 to 5000 nM |  | CC(C)(C)OC(=O)N1CC=C(c2ccc(-c3cnn(-c4cc(O)n[s+]4[O-])c3)cn2)CC1 (single isomer, unassigned) [Example 449]
54 |  | < 1000 nM | CN1CCOc2nc(-c3ccc4c(cnn4-c4cc(O)n[s+]4[O-])c3)ccc21 (stereo not drawn) [Example 179]

Row | EC50 [1] | EC50 [2] | Compound
55 |  | 1000 to 5000 nM | [O-][s+]1nc(O)cc1-n1ncc2c1CCN(CC1CCCCC1)C2 (single isomer, unassigned) [Example 257]
56 |  | 1000 to 5000 nM | [O-][s+]1nc(O)cc1-n1cc2c(n1)CN(Cc1cccc(Oc3ccccc3)c1)C2 (stereo not drawn) [Example 277]
57 |  | < 1000 nM | COc1cccc(-c2ccc3c(cnn3-c3cc(O)n[s+]3[O-])c2)n1 (stereo not drawn) [Example 129]
58 |  | 1000 to 5000 nM | COc1cccc2c1cnn2-c1cc(O)n[s+]1[O-] (stereo not drawn) [Example 191]
59 | < 1000 nM |  | [O-][s+]1nc(O)cc1-n1cc(C2=Cc3ccccc3C2)cn1 (stereo not drawn) [Example 384]
60 |  | < 1000 nM | [O-][s+]1nc(O)cc1-n1ncc2cc(-c3ccncc3)ccc21 (stereo not drawn) [Example 58]
61 | 1000 to 5000 nM |  | CN1C(=O)C(C)(C)c2cc(-c3cnn(-c4cc(O)n[s+]4[O-])c3)ccc21 (stereo not drawn) [Example 425]
62 |  | 1000 to 5000 nM | COc1ccc(-c2ccc3c(cnn3-c3cc(O)n[s+]3[O-])c2)c(C)n1 (stereo not drawn) [Example 6]
63 |  | < 1000 nM | COc1ccc2cnn(-c3cc(O)n[s+]3[O-])c2c1 (stereo not drawn) [Example 55]
64 |  | 1000 to 5000 nM | CC(=O)Nc1ccc(-c2ccc3c(cnn3-c3cc(O)n[s+]3[O-])c2)cc1 (stereo not drawn) [Example 66]
65 |  | 5000 to 10000 nM | [O-][s+]1nc(O)cc1-n1ncc2c(C3=CCOCC3)cccc21 (stereo not drawn) [Example 95]
66 |  | < 1000 nM | COc1cc2cnn(-c3cc(O)n[s+]3[O-])c2cn1 (stereo not drawn) [Example 242]
67 |  | 1000 to 5000 nM | [O-][s+]1nc(O)cc1-n1ncc2cc(-c3ccc(F)cn3)ccc21 (stereo not drawn) [Example 119]
68 | 1000 to 5000 nM |  | [O-][s+]1nc(O)cc1-n1cc(C2=Cc3ccccc3C2)cn1 (stereo not drawn) [Example 394]
69 |  | 1000 to 5000 nM | [O-][s+]1nc(O)cc1-n1ncc2c(-c3cccnc3)cccc21 (stereo not drawn) [Example 92]
70 | 5000 to 10000 nM |  | CN(C)Cc1cccc(-c2cnn(-c3cc(O)n[s+]3[O-])c2)c1 (stereo not drawn) [Example 406]
71 | < 1000 nM |  | COc1ccc(-c2cnn(-c3cc(O)n[s+]3[O-])c2)cc1 (stereo not drawn) [Example 389]
72 |  | < 1000 nM | COc1cc(-c2ccc3c(cnn3-c3cc(O)n[s+]3[O-])c2)cnc1N(C)C (stereo not drawn) [Example 173]
